Assay results taken from PMC6355809, “Proteinaceous Nano container Encapsulate Polycyclic Aromatic Hydrocarbons” (Scientific Reports, 2019).

How the values were obtained:
RHCC-NT [1] = molecular target: T1, RHCC-NT (Staphylothermus marinus, UniProt Q54436); assay: Fluorescence binding assay (steady-state titration of PAH with RHCC-NT); details: for Fluorescence intensity at 350 nm (λexc = 275 nm): 4 µM naphthalene; for ∆G, molar Gibbs free energy for the ligand binding: ∆G = RT ln (Kd); for binding to RHCC-NT / concentration dependent fluorescence changes: result in words
Procedure: Fluorescence assays were used to examine the binding of RHCC-NT to PAHs as they allow discrimination between PAHs in solution and those bound to the RHCC-NT, as well as the ability to monitor PAH uptake as a function of time (Fig. 2). […] In order to minimize contributions from tyrosine fluorescence, the fluorescence emission at 350 nm was used to determine the binding affinity of naphthalene to RHCC-NT (Table 1).
Initial binding screens were performed by titrating known amounts of a single PAH with varying amounts of RHCC-NT. All assays were performed in 20 mM sodium phosphate solution containing 1% ethanol buffered at pH 7 and adjusted to 150 mM ionic strength. All samples were prepared in triplicate to a final volume of 1 mL and were left to incubate overnight at 25 °C to ensure complete equilibration. PAH fluorescence was then measured as a function of RHCC-NT concentration. Steady-state fluorescence spectra were collected using Fluorolog-3 Horiba Jobin Yvon spectrofluorometer (Edison, NJ). Excitation wavelength was set to 275 nm for naphthalene, 300 nm for acenaphthene, 350 nm for anthracene, 334 nm for chrysene and pyrene, 290 nm for acenaphthylene and fluorene. Excitation and emission slits were set to 1 nm band pass resolution. All samples were measured at 20 °C in a 10 × 3 mm^2 quartz cuvette. The obtained fluorescence data was used to calculate the binding constant Kd assuming that each PAH binds to one of two equal bindings sites in the RHCC-NT, cavity 2 or 3. The fraction of PAH bound and the concentration of unbound RHCC-NT was determined based on the following equation:1 Fractionbound=y=F−F0/F∞−F0=Bmax[RHCCfree]/Kd+[RHCCfree] where F is the experimental fluorescence signal of each sample, F∞ is the fluorescence of the PAH at infinite protein concentration, F0 is the fluorescence of the free PAH in solution, Bmax is a constant and equal to 1. The y values thus obtained were plotted as a function of free RHCC concentrations. The plotted data were then fit to Equation (1) using Sigma Plot 13 (Point Richmond, CA), yielding the binding constant Kd for each PAH bound to RHCC-NT[27].

RHCC-NT [2] = molecular target: T1, RHCC-NT; assay: Time-scale binding assay (uptake of PAH by RHCC-NT, fluorescence); details: for time to reach equilibrium: under the conditions of the pyrene time-scale study (10 °C), data not shown; for Py-value (ratio of fluorescence emission intensities of Band I/III): 2 µM pyrene, 70 µM RHCC
Description: To probe the uptake kinetics of low MW PAHs, we examined the fluorescence characteristics of pyrene in solvent in comparison to RHCC-NT bound pyrene (Fig. 4). As the bulkiest of the PAHs tested, it is expected that pyrene provides an upper bound on the equilibration time of these low MW PAHs. We took advantage of the major vibronic bands (I and III) of pyrene with defined peaks at ~373 and 384 nm[11],[12]. […] The ratio of the fluorescence emission intensities of Band I/III is defined as Py-value[13],[14] and can be employed to detect polarity in the vicinity of the probed microenvironment.
The time-scale assay was set-up by addition of pyrene to a 35-fold molar excess of RHCC in 20 mM sodium phosphate solution buffered at pH 7 and adjusted to 150 mM ionic strength. Both solutions were equilibrated to 10 °C prior to the assay. Data was collected on a Fluorolog-3 Horiba Jobin Yvon Spectrofluorometer (Edison, NJ). Excitation wavelength was set to 334 nm; emission was monitored at 384 nm; excitation and emission slits were set to 1 nm band pass resolution. Temperature was kept at 10 °C and controlled with a water bath throughout the experiment. Data was acquired every 1 minute for the first 25 minutes, following by 30 minute intervals until fluorescence signal plateaued and equilibrium achieved.

[3] = set-up: method as in PMID 26626387; details: in kJ/mol; cited from earlier work
RHCC-tetrabrachion = assay: GC-MS/MS uptake of PAHs; assay type: binding, Staphylothermus marinus; details: result in words

Row | SMILES | Kd (RHCC-NT [1]) [µM] | ∆G, molar Gibbs free energy for the ligand binding (RHCC-NT [1]) [kJ/mol] | time to reach equilibrium (RHCC-NT [2]) | ΔGsolv, measured solvation free energy [3] | binding to RHCC-NT / concentration dependent fluorescence changes (RHCC-NT [1]) | uptake by RHCC-tetrabrachion (RHCC-tetrabrachion) | further results
1 | c1ccc2ccccc2c1 [Naphthalene, naphthalene] | 17 ± 1.4 | -27.1 | ca. 1 min | −10.0 ± 2.5 | – | – | Fluorescence intensity at 350 nm (λexc = 275 nm) (RHCC-NT [1]; [RHCC] 0 µM): 708292; Fluorescence intensity at 350 nm (λexc = 275 nm) (RHCC-NT [1]; [RHCC] 0.12 µM): 709824; Fluorescence intensity at 350 nm (λexc = 275 nm) (RHCC-NT [1]; [RHCC] 0.24 µM): 730572; Fluorescence intensity at 350 nm (λexc = 275 nm) (RHCC-NT [1]; [RHCC] 0.48 µM): 733694; Fluorescence intensity at 350 nm (λexc = 275 nm) (RHCC-NT [1]; [RHCC] 0.96 µM): 780644; Fluorescence intensity at 350 nm (λexc = 275 nm) (RHCC-NT [1]; [RHCC] 1.9 µM): 906120; Fluorescence intensity at 350 nm (λexc = 275 nm) (RHCC-NT [1]; [RHCC] 3.8 µM): 1003650; Fluorescence intensity at 350 nm (λexc = 275 nm) (RHCC-NT [1]; [RHCC] 7.7 µM): 1177910; Fluorescence intensity at 350 nm (λexc = 275 nm) (RHCC-NT [1]; [RHCC] 15.4 µM): 1420260; Fluorescence intensity at 350 nm (λexc = 275 nm) (RHCC-NT [1]; [RHCC] 30.75 µM): 1845910; Fluorescence intensity at 350 nm (λexc = 275 nm) (RHCC-NT [1]; [RHCC] 61.5 µM): 1873130
2 | c1cc2c3c(cccc3c1)CC2 [Acenaphthene, acenaphthene] | 8.9 ± 1.8 | -28.6 | ca. 1 min | – | – | – | –
3 | c1ccc2c(c1)ccc1c3ccccc3ccc21 [Chrysene, chrysene] | 27 ± 5.6 | -25.9 | – | – | – | – | –
4 | c1ccc2cc3ccccc3cc2c1 [Anthracene, anthracene] | 8.7 ± 1.5 | -28.7 | – | – | – | – | –
5 | c1cc2ccc3cccc4ccc(c1)c2c34 [Pyrene, pyrene] | 30 ± 2 | -25.6 | – | −18.91 ± 2.5 | – | – | average uptake rate (RHCC-NT [2]; 10 °C): 1.59 nmol/hr∙mol RHCC-NT; time for complete uptake by RHCC-NT (RHCC-NT [2]; 10 °C, emission at 384 nm): around 80 hrs; Py-value (ratio of fluorescence emission intensities of Band I/III) (RHCC-NT [2]; RHCC-NT:Pyrene time = 0, 10 °C): 1.7288; Py-value (ratio of fluorescence emission intensities of Band I/III) (RHCC-NT [2]; RHCC-NT:Pyrene time = 75 hrs, 10 °C): 0.6395
6 | c1ccc2c(c1)Cc1ccccc1-2 [Fluorene, fluorene] | 5.4 ± 1.6 | -29.9 | – | – | – | – | –
7 | c1ccc2c(c1)ccc1ccccc12 [phenanthrene] | – | – | – | −16.2 ± 2.5 | did not exhibit any concentration dependent fluorescence changes | uptake | –
8 | c1ccc2cc3c(ccc4ccccc43)cc2c1 [benz(a)anthracene] | – | – | – | – | did not exhibit any concentration dependent fluorescence changes | uptake | –
9 | c1ccc2c(c1)-c1cccc3cccc-2c13 [fluoranthene] | – | – | – | – | did not exhibit any concentration dependent fluorescence changes | uptake | –
10 | C1=Cc2cccc3cccc1c23 [Acenaphthylene, acenaphthylene] | 32 ± 7 | -25.5 | ca. 1 min | – | – | – | –
